Here are results for five molecules from patent US20110152501A1, “Activatable Imaging Probes” (THE GENERAL HOSPITAL CORPORATION, priority 2001, published 2011).

What all share (format): biochemical
In test [1] the target is T1, MMP-2 (Homo sapiens, UniProt P08253).
T1 construct: purchased Boehringer-Mannheim, Ind
T1 sequence (P08253 110-660): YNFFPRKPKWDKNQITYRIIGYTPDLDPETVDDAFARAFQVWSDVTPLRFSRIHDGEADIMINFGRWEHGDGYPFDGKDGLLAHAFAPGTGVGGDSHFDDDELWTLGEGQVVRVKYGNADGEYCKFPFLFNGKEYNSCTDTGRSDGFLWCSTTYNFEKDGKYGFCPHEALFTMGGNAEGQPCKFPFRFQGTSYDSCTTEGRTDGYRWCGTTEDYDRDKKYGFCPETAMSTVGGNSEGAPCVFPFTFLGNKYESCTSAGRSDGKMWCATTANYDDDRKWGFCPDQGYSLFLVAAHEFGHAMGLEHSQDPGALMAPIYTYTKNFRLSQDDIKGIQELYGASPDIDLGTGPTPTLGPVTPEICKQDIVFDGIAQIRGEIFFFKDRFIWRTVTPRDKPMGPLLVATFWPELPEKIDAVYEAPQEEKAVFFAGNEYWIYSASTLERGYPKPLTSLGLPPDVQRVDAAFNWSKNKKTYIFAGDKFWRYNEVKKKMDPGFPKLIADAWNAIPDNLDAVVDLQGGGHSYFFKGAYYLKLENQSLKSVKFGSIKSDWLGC
The test is described as follows: Inhibition of MMP-2 mediated probe activation by inhibitors. The settings on record: 1 mM.
Description: Using 5 U of MMP-2 and 19 pmol of imaging probe, we performed a dose response study of mediated MMP inhibition up to 0.1 mM of inhibitor.
To determine the range of enzyme activation, a constant amount of imaging probe (26.6 pmol) was incubated with variable amounts of activated MMP-2 and fluorescence was determined after 24 hours. Inhibition experiments were performed by incubating 1 U of purified, activated MMP-2 with 19 pmol NIRF probe (220 pmol Cy 5.5) in the presence of different inhibitors, 1.10 phenanthroline (1 mM, Aldrich, Milwaukee, Wis.), a Zinc chelator, or a direct MMP-2 inhibitor.

The target of test [2] is T1, MMP-2. As to the kind of experiment: HPLC analysis of peptide substrates after incubation with MMP-2. How it is done: The synthesized probes contain a preferential MMP-2 peptide substrate. Two different peptide substrates were used in this study, an MMP-2 cleavable peptide ([…](FITC)C-NH2 (SEQ ID NO:10) (substrate sites are italicized)) and a scrambled control peptide. […] Although the latter control probe has a GVR leader sequence, it is too short to be recognized by MMP-2.
Characterization of probe. A number of experiments were conducted to characterize the peptide substrate and imaging probes. Initially we performed HPLC analysis of peptide and control substrates prior to and after incubation with 1 U of MMP-2. One unit is the activity that hydrolyzes 1 μg of type IV collagen within 1 hour using a commercially available assay (gelatinase 72 kD, Boehringer Mannheim, Indianapolis, Ind.). Reverse phase HPLC (Brownlee, Spheri-5, ODS, 30×4.6 mm), using 0.1% TFA and acetonitrile as elution buffers was performed (Rainin Instruments, Woburn, Mass.). […] The control probe contained the scrambled peptide. To determine the range of enzyme activation, a constant amount of imaging probe (26.6 pmol) was incubated with variable amounts of activated MMP-2 and fluorescence was determined after 24 hours. […]

A further test deals with T2, thrombin (Homo sapiens, UniProt P00734).
T2 construct: tested with purified thrombin in PBS buffer
The test is described as follows: Enzymatic assay of peptide cleavage by thrombin (HPLC). An excerpt:
In contrast, there was no cleavage when the serine at P1′ position was replaced by a proline residue.

The target in the next test is T3, purified thrombin (Homo sapiens, UniProt P00734).
T3 construct: tested with purified thrombin in PBS buffer
The test is described as follows: Probe activation with purified thrombin in PBS buffer, NIRF signal over time. The settings on record: thrombin added to solutions containing thrombin probe and hirudin, compared to hirudin-free solutions. How it is done:
The prepared probes were first tested with purified thrombin in PBS buffer as the NIRF signal was recorded over time. […] Following addition of thrombin, NIRF signal increased from 150 AU to 4100 AU within 20 minutes (27 fold increase). […] There was a clear dose response when the probe was incubated with different amounts of thrombin.

Non-standard residues stand in square brackets, D forms with d. Primed or numbered codes have the meaning given here. No end group written: not given here. *: point of attachment. FITC = O=C1OC2(c3ccc(O)cc3Oc3cc(O)ccc32)c2ccc(NC(=S)*)cc21; Pip′ = not defined here

As to `c1cnc2c(c1)ccc1cccnc12` [1,10 phenanthroline], the “blocking of fluorescence activation” value at MMP-2 [1] was “completely blocked”.

Regarding “Gly-Pro-Leu-Gly-Val-Arg-Gly-Lys(FITC)-Cys-NH2 (GPLGVRGK(FITC)C-NH2; N-terminus assumed; SMILES CC(C)C[C@H](NC(=O)[C@@H]1CCCN1C(=O)CN)C(=O)NCC(=O)N[C@H](C(=O)N[C@@H](CCCNC(=N)N)C(=O)NCC(=O)N[C@@H](CCCCNC(=S)Nc1ccc2c(c1)C(=O)OC21c2ccc(O)cc2Oc2cc(O)ccc21)C(=O)N[C@@H](CS)C(N)=O)C(C)C)”, the “cleavage by MMP-2” value with MMP-2 [2] is “cleavage of the former”.

With “Gly-D-Phe-Pip-Arg-Ser-Gly-Gly-Gly-Gly-Lys(FITC)-Cys-NH2 (G[dF][Pip′]RSGGGGK(FITC)C-NH2) [C-terminal extended peptide]”, the cleavage by thrombin result with thrombin (HPLC) is reported as “cleaved into two major products”.

Take hirudin: the “effect on thrombin activation of the thrombin probe” value on purified thrombin is reported as “significantly less NIRF signal”.

Consider “Gly-D-Phe-Pip-Arg-Pro-Gly-Gly-Gly-Gly-Lys(FITC)-Cys-NH2”, for which the stability against thrombin result at thrombin (two hours following incubation with thrombin) is recorded as “remained intact”.
